{"source": "paper PMC9851200", "about": "“Multiparameter phenotypic screening for endogenous TFEB and TFE3 translocation identifies novel chemical series modulating lysosome function” (Autophagy, 2022)", "origin": "cited, not measured here", "parameters_in_all_cases": "method as in original PKIS2 published data", "key": {"[1]": {"target": "T1, kinases (KINOMEscan panel) (Homo sapiens, UniProt Q96D53)", "T1 sequence (Q96D53 1-544)": "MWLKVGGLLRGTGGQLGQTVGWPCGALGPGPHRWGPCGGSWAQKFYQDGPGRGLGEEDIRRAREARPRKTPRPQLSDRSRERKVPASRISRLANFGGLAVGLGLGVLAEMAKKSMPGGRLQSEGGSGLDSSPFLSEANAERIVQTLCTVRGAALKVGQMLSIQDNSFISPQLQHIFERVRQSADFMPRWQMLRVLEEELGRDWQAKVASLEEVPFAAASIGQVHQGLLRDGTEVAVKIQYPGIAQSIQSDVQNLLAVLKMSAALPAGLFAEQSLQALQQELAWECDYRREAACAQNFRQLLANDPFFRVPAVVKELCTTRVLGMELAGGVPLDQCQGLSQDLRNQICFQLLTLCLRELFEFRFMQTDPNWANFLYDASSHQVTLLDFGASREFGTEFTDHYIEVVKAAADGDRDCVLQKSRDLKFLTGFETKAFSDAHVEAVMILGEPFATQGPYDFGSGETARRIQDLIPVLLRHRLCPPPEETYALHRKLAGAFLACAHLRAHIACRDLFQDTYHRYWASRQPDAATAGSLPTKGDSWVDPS", "details": "kinase COQ8B; Published KINOMEscan; ref original PKIS2 published data; cited from earlier work"}, "[2]": {"target": "kinases (KINOMEscan panel) (Homo sapiens, UniProt P19784)", "sequence (P19784 whole entry)": "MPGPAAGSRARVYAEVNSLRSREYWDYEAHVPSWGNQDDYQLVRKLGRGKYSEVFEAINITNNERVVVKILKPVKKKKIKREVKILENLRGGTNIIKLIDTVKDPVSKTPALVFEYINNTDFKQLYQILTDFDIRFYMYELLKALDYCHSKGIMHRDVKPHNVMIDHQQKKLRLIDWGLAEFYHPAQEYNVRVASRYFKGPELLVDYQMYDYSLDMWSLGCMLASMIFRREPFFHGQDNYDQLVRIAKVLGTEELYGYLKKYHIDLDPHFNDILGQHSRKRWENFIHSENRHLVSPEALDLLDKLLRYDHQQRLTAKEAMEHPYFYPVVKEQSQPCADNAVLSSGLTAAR", "details": "CSNK2A2; Published KINOMEscan; ref original PKIS2 published data; cited from earlier work"}, "[3]": {"target": "T2, kinases (KINOMEscan panel) (Homo sapiens, UniProt P21709)", "T2 sequence (P21709 26-976)": "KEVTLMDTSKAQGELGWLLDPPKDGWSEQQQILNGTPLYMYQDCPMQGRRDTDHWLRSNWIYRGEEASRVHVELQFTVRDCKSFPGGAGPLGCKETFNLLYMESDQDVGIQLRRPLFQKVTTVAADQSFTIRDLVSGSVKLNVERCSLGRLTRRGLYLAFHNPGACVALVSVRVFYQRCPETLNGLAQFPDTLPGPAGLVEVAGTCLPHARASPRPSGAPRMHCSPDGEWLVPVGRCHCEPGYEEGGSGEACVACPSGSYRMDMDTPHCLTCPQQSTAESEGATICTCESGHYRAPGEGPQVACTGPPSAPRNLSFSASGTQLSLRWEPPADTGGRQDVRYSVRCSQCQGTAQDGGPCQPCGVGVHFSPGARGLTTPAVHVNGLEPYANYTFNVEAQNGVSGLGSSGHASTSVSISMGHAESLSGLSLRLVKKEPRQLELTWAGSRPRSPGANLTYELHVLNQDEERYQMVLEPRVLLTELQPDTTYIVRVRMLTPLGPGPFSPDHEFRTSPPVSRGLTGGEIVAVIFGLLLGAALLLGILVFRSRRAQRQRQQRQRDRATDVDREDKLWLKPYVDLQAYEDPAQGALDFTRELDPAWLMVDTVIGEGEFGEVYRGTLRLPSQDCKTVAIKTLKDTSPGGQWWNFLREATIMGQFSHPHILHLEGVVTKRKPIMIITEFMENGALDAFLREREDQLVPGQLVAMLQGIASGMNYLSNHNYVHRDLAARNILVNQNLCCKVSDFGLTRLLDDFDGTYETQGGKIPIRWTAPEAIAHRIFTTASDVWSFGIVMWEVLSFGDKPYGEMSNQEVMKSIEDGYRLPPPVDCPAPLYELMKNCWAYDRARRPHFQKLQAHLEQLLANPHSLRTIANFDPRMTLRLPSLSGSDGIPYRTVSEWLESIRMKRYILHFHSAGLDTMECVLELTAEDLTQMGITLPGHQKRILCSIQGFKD", "details": "EPHA1; Published KINOMEscan; ref original PKIS2 published data; cited from earlier work"}, "[4]": {"target": "T3, kinases (KINOMEscan panel) (Homo sapiens, UniProt O14757)", "T3 sequence (O14757 1-476)": "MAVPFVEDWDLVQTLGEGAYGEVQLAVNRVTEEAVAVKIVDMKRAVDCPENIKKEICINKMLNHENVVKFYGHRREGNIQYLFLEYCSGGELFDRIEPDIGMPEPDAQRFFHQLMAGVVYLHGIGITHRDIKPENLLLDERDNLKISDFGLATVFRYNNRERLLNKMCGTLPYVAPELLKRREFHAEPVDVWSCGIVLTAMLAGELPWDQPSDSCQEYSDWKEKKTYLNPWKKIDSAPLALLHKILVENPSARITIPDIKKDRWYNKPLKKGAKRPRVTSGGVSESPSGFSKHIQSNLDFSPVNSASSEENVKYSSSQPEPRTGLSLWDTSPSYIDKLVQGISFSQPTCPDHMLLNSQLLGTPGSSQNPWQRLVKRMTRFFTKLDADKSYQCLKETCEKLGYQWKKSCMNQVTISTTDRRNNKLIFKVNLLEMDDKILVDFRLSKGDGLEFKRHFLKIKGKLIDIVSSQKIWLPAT", "details": "CHEK1; Published KINOMEscan; ref original PKIS2 published data; cited from earlier work"}, "[5]": {"target": "kinases (KINOMEscan panel) (Homo sapiens, UniProt Q9BYP7)", "sequence (Q9BYP7 whole entry)": "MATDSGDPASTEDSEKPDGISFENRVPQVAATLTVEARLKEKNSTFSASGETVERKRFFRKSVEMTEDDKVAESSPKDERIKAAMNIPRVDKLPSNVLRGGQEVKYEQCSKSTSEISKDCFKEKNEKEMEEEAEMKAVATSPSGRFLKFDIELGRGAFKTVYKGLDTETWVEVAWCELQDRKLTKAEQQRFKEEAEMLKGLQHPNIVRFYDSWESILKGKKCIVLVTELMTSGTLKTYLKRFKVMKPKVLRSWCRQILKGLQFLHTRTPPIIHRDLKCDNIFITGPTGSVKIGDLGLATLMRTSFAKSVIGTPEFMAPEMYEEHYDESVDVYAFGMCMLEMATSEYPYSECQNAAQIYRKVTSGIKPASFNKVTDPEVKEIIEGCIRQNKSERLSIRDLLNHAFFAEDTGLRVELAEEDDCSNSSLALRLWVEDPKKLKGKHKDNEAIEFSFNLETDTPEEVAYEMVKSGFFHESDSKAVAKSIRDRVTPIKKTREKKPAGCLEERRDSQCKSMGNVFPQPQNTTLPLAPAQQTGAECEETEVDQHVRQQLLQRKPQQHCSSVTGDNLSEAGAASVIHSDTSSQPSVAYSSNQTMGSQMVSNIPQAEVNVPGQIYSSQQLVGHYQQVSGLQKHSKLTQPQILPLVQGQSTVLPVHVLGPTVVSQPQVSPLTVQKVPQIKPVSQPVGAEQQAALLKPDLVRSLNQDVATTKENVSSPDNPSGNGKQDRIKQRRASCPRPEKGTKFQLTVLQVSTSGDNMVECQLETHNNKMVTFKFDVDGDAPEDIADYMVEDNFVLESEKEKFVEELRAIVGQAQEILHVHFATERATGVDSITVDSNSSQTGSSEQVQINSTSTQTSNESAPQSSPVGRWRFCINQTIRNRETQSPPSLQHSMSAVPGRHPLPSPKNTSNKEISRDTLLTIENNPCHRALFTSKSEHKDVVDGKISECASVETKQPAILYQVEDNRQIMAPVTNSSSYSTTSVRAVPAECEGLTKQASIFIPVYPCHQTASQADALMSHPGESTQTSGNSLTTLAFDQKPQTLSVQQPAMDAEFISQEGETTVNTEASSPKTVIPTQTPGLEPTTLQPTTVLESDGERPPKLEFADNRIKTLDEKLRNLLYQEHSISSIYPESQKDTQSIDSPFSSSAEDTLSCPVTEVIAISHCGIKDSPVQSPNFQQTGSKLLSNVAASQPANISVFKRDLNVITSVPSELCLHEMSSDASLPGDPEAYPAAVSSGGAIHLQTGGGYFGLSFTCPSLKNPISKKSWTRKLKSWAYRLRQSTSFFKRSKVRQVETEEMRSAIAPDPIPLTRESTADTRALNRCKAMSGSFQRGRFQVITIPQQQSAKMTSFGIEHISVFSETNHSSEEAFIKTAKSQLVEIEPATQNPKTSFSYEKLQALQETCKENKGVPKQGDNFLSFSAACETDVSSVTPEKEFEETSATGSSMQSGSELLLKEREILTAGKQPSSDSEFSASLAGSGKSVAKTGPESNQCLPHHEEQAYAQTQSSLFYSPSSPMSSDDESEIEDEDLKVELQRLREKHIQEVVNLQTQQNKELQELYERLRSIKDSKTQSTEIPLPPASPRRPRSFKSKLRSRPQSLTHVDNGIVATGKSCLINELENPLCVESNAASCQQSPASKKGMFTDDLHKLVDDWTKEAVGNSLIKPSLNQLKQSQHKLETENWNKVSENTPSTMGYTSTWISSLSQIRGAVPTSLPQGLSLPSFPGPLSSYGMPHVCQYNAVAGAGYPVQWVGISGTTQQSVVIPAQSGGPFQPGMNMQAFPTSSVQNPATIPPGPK", "details": "Published KINOMEscan; ref original PKIS2 published data; cited from earlier work"}, "[6]": {"target": "kinases (KINOMEscan panel) (Homo sapiens, UniProt Q5S007)", "sequence (Q5S007 whole entry)": "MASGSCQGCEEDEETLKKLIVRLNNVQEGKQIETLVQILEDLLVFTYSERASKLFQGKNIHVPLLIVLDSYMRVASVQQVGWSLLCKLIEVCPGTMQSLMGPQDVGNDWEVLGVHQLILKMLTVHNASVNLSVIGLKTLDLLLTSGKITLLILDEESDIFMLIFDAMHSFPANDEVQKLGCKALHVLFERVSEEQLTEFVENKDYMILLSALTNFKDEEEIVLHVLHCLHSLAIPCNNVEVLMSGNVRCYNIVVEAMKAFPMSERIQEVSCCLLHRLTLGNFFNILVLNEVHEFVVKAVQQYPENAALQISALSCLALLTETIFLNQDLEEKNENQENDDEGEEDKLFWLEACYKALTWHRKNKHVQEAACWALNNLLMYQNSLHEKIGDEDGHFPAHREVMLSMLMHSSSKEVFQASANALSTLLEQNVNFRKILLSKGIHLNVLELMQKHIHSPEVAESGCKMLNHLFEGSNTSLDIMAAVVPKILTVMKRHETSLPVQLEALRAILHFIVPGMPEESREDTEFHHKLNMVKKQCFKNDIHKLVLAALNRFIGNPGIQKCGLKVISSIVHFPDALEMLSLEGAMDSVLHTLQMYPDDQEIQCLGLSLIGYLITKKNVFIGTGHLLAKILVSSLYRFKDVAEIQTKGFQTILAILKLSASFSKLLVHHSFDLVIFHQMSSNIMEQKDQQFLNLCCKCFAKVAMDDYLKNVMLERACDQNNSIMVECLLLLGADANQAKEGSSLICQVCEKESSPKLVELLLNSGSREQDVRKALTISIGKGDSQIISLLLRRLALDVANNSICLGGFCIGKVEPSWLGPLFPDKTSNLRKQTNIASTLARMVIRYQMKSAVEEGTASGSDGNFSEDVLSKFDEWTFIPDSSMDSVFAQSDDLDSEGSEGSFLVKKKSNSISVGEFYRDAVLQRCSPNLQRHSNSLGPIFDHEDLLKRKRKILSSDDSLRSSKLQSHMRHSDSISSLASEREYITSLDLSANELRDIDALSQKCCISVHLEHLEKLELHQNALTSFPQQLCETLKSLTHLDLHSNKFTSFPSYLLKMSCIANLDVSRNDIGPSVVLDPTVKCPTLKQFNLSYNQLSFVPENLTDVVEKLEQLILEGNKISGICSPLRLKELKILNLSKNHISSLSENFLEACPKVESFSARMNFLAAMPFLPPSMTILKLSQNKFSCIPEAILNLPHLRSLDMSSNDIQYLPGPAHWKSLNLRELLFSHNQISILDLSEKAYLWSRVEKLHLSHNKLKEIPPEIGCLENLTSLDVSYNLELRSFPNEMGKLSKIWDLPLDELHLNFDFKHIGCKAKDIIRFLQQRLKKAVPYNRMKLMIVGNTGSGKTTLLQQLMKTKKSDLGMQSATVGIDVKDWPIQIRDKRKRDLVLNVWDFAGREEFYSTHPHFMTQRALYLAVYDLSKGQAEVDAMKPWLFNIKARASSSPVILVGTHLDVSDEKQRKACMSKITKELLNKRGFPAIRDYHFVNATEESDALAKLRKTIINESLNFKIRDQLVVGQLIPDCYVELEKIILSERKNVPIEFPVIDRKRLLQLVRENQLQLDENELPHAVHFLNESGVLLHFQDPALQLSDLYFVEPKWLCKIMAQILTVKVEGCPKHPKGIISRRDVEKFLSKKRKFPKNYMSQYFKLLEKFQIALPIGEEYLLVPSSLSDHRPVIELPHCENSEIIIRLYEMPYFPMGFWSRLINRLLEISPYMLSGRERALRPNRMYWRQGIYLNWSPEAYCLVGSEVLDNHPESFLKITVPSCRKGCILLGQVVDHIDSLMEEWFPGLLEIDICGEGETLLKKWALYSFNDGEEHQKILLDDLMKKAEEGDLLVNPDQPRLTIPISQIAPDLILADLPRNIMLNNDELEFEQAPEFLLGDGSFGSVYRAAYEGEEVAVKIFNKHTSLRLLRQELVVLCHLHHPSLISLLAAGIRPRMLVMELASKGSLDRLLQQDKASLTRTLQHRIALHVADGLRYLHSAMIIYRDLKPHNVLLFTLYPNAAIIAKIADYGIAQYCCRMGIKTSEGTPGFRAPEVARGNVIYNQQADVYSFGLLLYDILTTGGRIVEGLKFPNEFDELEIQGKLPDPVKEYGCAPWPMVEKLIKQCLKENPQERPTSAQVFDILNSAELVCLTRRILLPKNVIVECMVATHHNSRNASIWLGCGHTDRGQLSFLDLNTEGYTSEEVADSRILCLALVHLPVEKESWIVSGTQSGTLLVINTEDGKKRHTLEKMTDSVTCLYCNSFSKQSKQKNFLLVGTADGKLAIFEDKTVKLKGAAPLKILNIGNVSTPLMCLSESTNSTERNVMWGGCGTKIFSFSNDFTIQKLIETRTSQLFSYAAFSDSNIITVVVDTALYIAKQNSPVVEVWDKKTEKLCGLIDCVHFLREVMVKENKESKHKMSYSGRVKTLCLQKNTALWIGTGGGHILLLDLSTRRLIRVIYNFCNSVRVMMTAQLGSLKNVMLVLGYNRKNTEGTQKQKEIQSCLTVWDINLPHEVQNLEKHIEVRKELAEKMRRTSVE", "details": "Published KINOMEscan; ref original PKIS2 published data; cited from earlier work"}}, "data": [{"smiles": "Cc1cccc(-c2nc(Nc3ccncc3)c3ccccc3n2)n1", "note": "[NK215]", "values": [{"measurement": "KINOMEscan COQ8B", "setting": "[1]", "result": 0}, {"measurement": "KINOMEscan CSNK2A2", "setting": "[2]", "result": 0}, {"measurement": "KINOMEscan EPHA1", "setting": "[3]", "result": 23}, {"measurement": "KINOMEscan CHEK1", "setting": "[4]", "result": 0}, {"measurement": "KINOMEscan WNK3", "setting": "[5]", "result": 0}, {"measurement": "KINOMEscan LRRK2", "setting": "[6]", "result": 0}]}]}
